Source: US6455259B2, “Methods for detecting, selecting and cloning agents that degrade or promote degradation of DNA” (priority 1998, dated 2002)

Assays:
E. coli strain MC1061 [1] = assay: Complementation of T4 denA mutant phage by bleomycin: progeny phage production; format: cell-based
Method: (§1) In this example, a T4 denA mutant phage is complemented with an antibiotic known to cause single strand breaks in DNA, bleomycin. In this example, the production of any viable progeny phage above the background will be evidence of complementation. E. coli strain MC1061, growing at 32∞ C in Luria Broth plus 0.2% glucose was treated for 60 minutes with 10 μg/ml of bleomycin, which was then removed by centrifuging the cells and re-suspending them in an equal volume of the same media. Under these treatment conditions, cell viability is reduced to about 40-50% of that at the beginning of the treatment. The cells are then allowed to grow for various amounts of time at 32∞ C. in the absence of bleomycin, at which times HU is added to 200 mM.
Phage mutant in both the denA and denB genes is added five minutes later. Unadsorbed input phage are eliminated by treating the infected cultures with anti-T4 sera added 15-20 minutes after infection. This anti-T4 sera treatment to eliminate unadsorbed input phage allows detection of a lower level of progeny phage production. However, the anti-T4 sera must be removed or it will also inactivate progeny phage. This was done by centrifuging the infected cultures 50 minutes after infection, washing the pellets with one-tenth volume of media, centrifuging again, re-suspending the culture in one volume of media and immediately causing lysis of the productive cells by the addition of chloroform.
Progeny phage production was assayed by standard methods. A control infection was also done on cells given no bleomycin treatment.

E. coli strain MC1061 [2] = assay: Cell viability after bleomycin treatment; format: cell-based; details: 10 μg/ml bleomycin, 60 minutes, 32 C, Luria Broth plus 0.2% glucose
Method: as §1

bleomycin
factor increase of progeny titre over control (no Bleomycin) (E. coli strain MC1061 [1]; outgrowth 0 minutes): 1300
factor increase of progeny titre over control (no Bleomycin) (E. coli strain MC1061 [1]; outgrowth 20 minutes): 13000
factor increase of progeny titre over control (no Bleomycin) (E. coli strain MC1061 [1]; outgrowth 40 minutes): 24000
factor increase of progeny titre over control (no Bleomycin) (E. coli strain MC1061 [1]; outgrowth 60 minutes): 45000
cell viability, relative to that at the beginning of the treatment (E. coli strain MC1061 [2]): 40-50%
